{"source": "PubChem BioAssay AID2060903", "about": "(Molecular Pharmacology Branch, DTP, NCI, 2025);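 also: spheroids exposed to compounds for seven days before readout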", "tested_on": "377384-186-R-J1-PDC complex spheroid viability", "test": "Anticancer human tumor 377384-186-R-J1-PDC patient-derived pancreatic carcinoma cell line growth inhibition [RAS]", "settings": "for viability, T/C: stronger effect = lower value", "in_short": "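Tumour cells grown as complex spheroids with HUVEC endothelial cells and mesenchymal stem cells, treated with RAS pathway inhibitor combinations. Each agent spans half-log steps from near clinical Cmax, or 10 microM where Cmax is unknown.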"}
{"smiles": "C=CC(=O)Nc1cc(Nc2nccc(-c3cn(C)c4ccccc34)n2)c(OC)cc1N(C)CCN(C)C", "values": [{"measurement": "viability, T/C", "setting": "compound 0.00316 µM", "result": "95.6% [middle of 4 runs]"}, {"measurement": "viability, T/C", "setting": "compound 0.01 µM", "result": "97.8% [middle of 4 runs]"}, {"measurement": "viability, T/C", "setting": "compound 0.0316 µM", "result": "92.6% [middle of 4 runs]"}, {"measurement": "viability, T/C", "setting": "compound 0.1 µM", "result": "87.7% [middle of 4 runs]"}, {"measurement": "viability, T/C", "setting": "compound 0.316 µM", "result": "64.9% [middle of 4 runs]"}, {"measurement": "viability, T/C", "setting": "compound 1 µM", "result": "40.4% [middle of 4 runs]"}, {"measurement": "IC50", "setting": "curve of compound", "result": "639 nM [middle of 4 runs]"}]}
{"smiles": "C[C@@H](NC(=O)c1ncnc(N)c1Cl)c1ncc(C(=O)Nc2cc(C(F)(F)F)c(Cl)cn2)s1", "note": "+ C#Cc1c(F)ccc2cc(O)cc(-c3ncc4c(N5CC6CCC(C5)N6)nc(OCC56CCCN5CC(F)C6)nc4c3F)c12", "values": [{"measurement": "IC50", "setting": "curve of first compound, second compound 0.0316 µM", "result": "< 31.6", "unit": "nM"}, {"measurement": "IC50", "setting": "curve of first compound, second compound 0.1 µM", "result": "< 31.6", "unit": "nM"}, {"measurement": "IC50", "setting": "curve of first compound, second compound 0.316 µM", "result": "< 31.6", "unit": "nM"}, {"measurement": "IC50", "setting": "curve of first compound, second compound 1 µM", "result": "< 31.6", "unit": "nM"}, {"measurement": "IC50", "setting": "curve of first compound, second compound 3.16 µM", "result": "< 31.6", "unit": "nM"}, {"measurement": "IC50", "setting": "curve of first compound, second compound 10 µM", "result": "< 31.6", "unit": "nM"}, {"measurement": "viability, T/C", "setting": "second compound 0.0316 µM, first compound 0.0316 µM", "result": 30.5, "unit": "%"}, {"measurement": "viability, T/C", "setting": "second compound 0.0316 µM, first compound 0.1 µM", "result": 27.9, "unit": "%"}, {"measurement": "viability, T/C", "setting": "second compound 0.0316 µM, first compound 0.316 µM", "result": 30, "unit": "%"}, {"measurement": "viability, T/C", "setting": "second compound 0.0316 µM, first compound 1 µM", "result": 31.1, "unit": "%"}, {"measurement": "viability, T/C", "setting": "second compound 0.0316 µM, first compound 3.16 µM", "result": 30.3, "unit": "%"}, {"measurement": "viability, T/C", "setting": "second compound 0.0316 µM, first compound 10 µM", "result": 27.2, "unit": "%"}, {"measurement": "viability, T/C", "setting": "second compound 0.1 µM, first compound 0.0316 µM", "result": 14.6, "unit": "%"}, {"measurement": "viability, T/C", "setting": "second compound 0.1 µM, first compound 0.1 µM", "result": 16.2, "unit": "%"}, {"measurement": "viability, T/C", "setting": "second compound 0.1 µM, first compound 0.316 µM", "result": 14.1, "unit": "%"}, {"measurement": "viability, T/C", "setting": "second compound 0.1 µM, first compound 1 µM", "result": 19.3, "unit": "%"}, {"measurement": "viability, T/C", "setting": "second compound 0.1 µM, first compound 3.16 µM", "result": 16.2, "unit": "%"}, {"measurement": "viability, T/C", "setting": "second compound 0.1 µM, first compound 10 µM", "result": 14.4, "unit": "%"}, {"measurement": "viability, T/C", "setting": "second compound 0.316 µM, first compound 0.0316 µM", "result": 7.93, "unit": "%"}, {"measurement": "viability, T/C", "setting": "second compound 0.316 µM, first compound 0.1 µM", "result": 8.44, "unit": "%"}, {"measurement": "viability, T/C", "setting": "second compound 0.316 µM, first compound 0.316 µM", "result": 10.6, "unit": "%"}, {"measurement": "viability, T/C", "setting": "second compound 0.316 µM, first compound 1 µM", "result": 9.52, "unit": "%"}, {"measurement": "viability, T/C", "setting": "second compound 0.316 µM, first compound 3.16 µM", "result": 11.1, "unit": "%"}, {"measurement": "viability, T/C", "setting": "second compound 0.316 µM, first compound 10 µM", "result": 10.5, "unit": "%"}, {"measurement": "viability, T/C", "setting": "second compound 1 µM, first compound 0.0316 µM", "result": 4.26, "unit": "%"}, {"measurement": "viability, T/C", "setting": "second compound 1 µM, first compound 0.1 µM", "result": 5.19, "unit": "%"}, {"measurement": "viability, T/C", "setting": "second compound 1 µM, first compound 0.316 µM", "result": 5.9, "unit": "%"}, {"measurement": "viability, T/C", "setting": "second compound 1 µM, first compound 1 µM", "result": 8.08, "unit": "%"}, {"measurement": "viability, T/C", "setting": "second compound 1 µM, first compound 3.16 µM", "result": 8.4, "unit": "%"}, {"measurement": "viability, T/C", "setting": "second compound 1 µM, first compound 10 µM", "result": 6.52, "unit": "%"}, {"measurement": "viability, T/C", "setting": "second compound 3.16 µM, first compound 0.0316 µM", "result": 3.23, "unit": "%"}, {"measurement": "viability, T/C", "setting": "second compound 3.16 µM, first compound 0.1 µM", "result": 2.84, "unit": "%"}, {"measurement": "viability, T/C", "setting": "second compound 3.16 µM, first compound 0.316 µM", "result": 2.97, "unit": "%"}, {"measurement": "viability, T/C", "setting": "second compound 3.16 µM, first compound 1 µM", "result": 3.77, "unit": "%"}, {"measurement": "viability, T/C", "setting": "second compound 3.16 µM, first compound 3.16 µM", "result": 4.25, "unit": "%"}, {"measurement": "viability, T/C", "setting": "second compound 3.16 µM, first compound 10 µM", "result": 4.87, "unit": "%"}, {"measurement": "viability, T/C", "setting": "second compound 10 µM, first compound 0.0316 µM", "result": 2.04, "unit": "%"}, {"measurement": "viability, T/C", "setting": "second compound 10 µM, first compound 0.1 µM", "result": 1.21, "unit": "%"}, {"measurement": "viability, T/C", "setting": "second compound 10 µM, first compound 0.316 µM", "result": 1.76, "unit": "%"}, {"measurement": "viability, T/C", "setting": "second compound 10 µM, first compound 1 µM", "result": 2.5, "unit": "%"}, {"measurement": "viability, T/C", "setting": "second compound 10 µM, first compound 3.16 µM", "result": 3.8, "unit": "%"}, {"measurement": "viability, T/C", "setting": "second compound 10 µM, first compound 10 µM", "result": 1.16, "unit": "%"}]}
